The term melting point denotes the temperature, or range, at which the solid turns liquid. In turn, `CC(C)OC1=NNC(=O)C1=Cc1cn(C)c2ccccc12` [Example 248, 3-Isopropoxy-4-[(1-methylindol-3-yl)methylene]-2-pyrazolin-5-one] showed a melting point of 239 to 240 °C.
Molecule `COC(=O)c1ccc(CCC2=NNC(=O)C2=Cc2c[nH]c3ccccc23)cc1` [Example 249, 4-[(Indol-3-yl)methylene]-3-(4-methoxycarbonylphenylethyl)-2-pyrazolin-5-one] gave a melting point of 259 to 260 °C.
In turn, `CC(C)OC1=NNC(=O)C1=Cc1cn(C(C)C)c2ccccc12` [Example 250, 3-Isopropoxy-4-[(1-isopropylindol-3-yl)methylene]-2-pyrazolin-5-one] showed a melting point of 161 to 163 °C.
With `Cn1cc(C=C2C(=O)NN=C2CCc2ccc(O)cc2)c2ccccc21` [Example 251, 3-(4-Hydroxyphenylethyl)-4-[(1-methylindol-3-yl)methylene]-2-pyrazolin-5-one] the figure was 255 to 257 °C; with `CC(C)C1=NNC(=O)C1=Cc1c[nH]c2ccccc12` [Example 252, 3-Isopropyl-4-[(indol-3-yl)methylene]-2-pyrazolin-5-one], 264 to 266 °C.
On to `O=C(CC1=NNC(=O)C1=Cc1c[nH]c2ccccc12)Nc1ccc(Cl)cc1` [Example 253, 3-(4-Chlorophenylaminocarbonylmethyl)-4-[(indol-3-yl)methylene]-2-pyrazolin-5-one], for which the melting point is 305 to 307 °C.
`CCOC(=O)CC1=NNC(=O)C1=Cc1c[nH]c2ccccc12` [Example 254, 3-Ethoxycarbonylmethyl-4-[(indol-3-yl)methylene]-2-pyrazolin-5-one]: the melting point was in the range of 235 to 237 °C.
The same measure for `COc1ccc(NC(=O)CC2=NNC(=O)C2=Cc2c[nH]c3ccccc23)cc1` [Example 255, 4-[(Indol-3-yl)methylene]-3-(4-methoxyphenylaminocarbonylmethyl)-2-pyrazolin-5-one]: greater than 300 °C; for `O=C1NN=C(C2CC2)C1=Cc1c[nH]c2ccccc12` [Example 256, 3-Cyclopropyl-4-[(indol-3-yl)methylene]-2-pyrazolin-5-one]: 300 to 305 °C; for `NC(=O)CCC1=NNC(=O)C1=Cc1c[nH]c2ccccc12` [Example 258, 3-(2-Aminocarbonylethyl)-4-[(indol-3-yl)methylene]-2-pyrazolin-5-one]: 280 to 281 °C.
The same measure for `O=C1NN=C(C2CCC2)C1=Cc1c[nH]c2ccccc12` [Example 259, 3-Cyclobutyl-4-[(indol-3-yl)methylene]-2-pyrazolin-5-one]: greater than 300 °C; for `CN(C)C(=O)CCC1=NNC(=O)C1=Cc1c[nH]c2ccccc12` [Example 260, 3-(2-Dimethylaminocarbonylethyl)-4-[(indol-3-yl)methylene]-2-pyrazolin-5-one]: 258 to 260 °C.
The same measure for `O=C1NN=C(C2CC2)C1=Cc1cn(CCCCO)c2ccccc12` [Example 261, 3-Cyclopropyl-4-{[1-(4-hydroxybutyl)indol-3-yl]methylene}-2-pyrazolin-5-one]: 215 to 216 °C; for `O=C1NN=C(c2ccncc2)C1=Cc1c[nH]c2ccccc12` [Example 262, 4-[(Indol-3-yl)methylene]-3-(4-pyridyl)-2-pyrazolin-5-one]: greater than 300 °C.
`O=C1NN=C(C2CCCC2)C1=Cc1c[nH]c2ccccc12` [Example 263, 3-Cyclopentyl-4-[(indol-3-yl)methylene]-2-pyrazolin-5-one] yielded a melting point of 300 to 304 °C.
In turn, `CC1(C)C(C2=NNC(=O)C2=Cc2c[nH]c3ccccc23)C1(C)C` [Example 264, 4-[(Indol-3-yl)methylene]-3-(2,2,3,3-tetramethylcyclopropyl)-2-pyrazolin-5-one] displayed a melting point of 296 to 298 °C.
In turn, `CC1CC1C1=NNC(=O)C1=Cc1c[nH]c2ccccc12` (stereo not shown) [Example 265, 4-[(Indol-3-yl)methylene]-3-(2-methylcyclopropyl)-2-pyrazolin-5-one] had a melting point of 294 to 296 °C.
With `O=C1NN=C(C2CCCCC2)C1=Cc1cn(CCCCO)c2ccccc12` [Example 266, 3-Cyclohexyl-4-{[1-(4-hydroxybutyl)indol-3-yl]methylene}-2-pyrazolin-5-one] the figure was 226 to 227 °C.
As to `O=C1NN=C(c2ccncc2)C1=Cc1cn(CCCCO)c2ccccc12` [Example 267, 4-{[1-(4-Hydroxybutyl)indol-3-yl]methylene}-3-(4-pyridyl)-2-pyrazolin-5-one], the melting point is 224 to 225 °C.
Molecule `O=C1NN=C(c2nc3ccccc3s2)C1=Cc1c[nH]c2ccccc12` [Example 268, 3-(Benzothiazol-2-yl)-4-[(indol-3-yl)methylene]-2-pyrazolin-5-one] gave a melting point greater than 300 °C.
`O=C1NN=C(c2ccccn2)C1=Cc1c[nH]c2ccccc12` [Example 269, 4-[(Indol-3-yl)methylene]-3-(2-pyridyl)-2-pyrazolin-5-one] yielded a melting point of 278 to 280 °C.
With `CN(C)C1=NNC(=O)C1=Cc1c[nH]c2ccccc12` [Example 270, 3-Dimethylamino-4-[(indol-3-yl)methylene]-2-pyrazolin-5-one] the figure was 258 to 260 °C; with `O=C1NN=C(c2ccc[nH]2)C1=Cc1c[nH]c2ccccc12` [Example 271, 4-[(Indol-3-yl)methylene]-3-(pyrrol-2-yl)-2-pyrazolin-5-one], 300 to 302 °C; with `COc1ccc2nc(C3=NNC(=O)C3=Cc3c[nH]c4ccccc34)sc2c1` [Example 272, 4-[(Indol-3-yl)methylene]-3-(6-methoxybenzothiazol-2-yl)-2-pyrazolin-5-one], greater than 300 °C.
With `Cn1cc(C=C2C(=O)NN=C2C2CC2)c2ccccc21` [Example 273, 3-Cyclopropyl-4-[(1-methylindol-3-yl)methylene]-2-pyrazolin-5-one] the figure was 245 to 247 °C.
The same measure for `Cc1cccc2c(C=C3C(=O)NN=C3C3CC3)c[nH]c12` [Example 274, 3-Cyclopropyl-4-[(7-methylindol-3-yl)methylene]-2-pyrazolin-5-one]: 286 to 288 °C.
Molecule `Cn1cc(C=C2C(=O)NN=C2c2cccnc2)c2ccccc21` [Example 275, 4-[(1-Methylindol-3-yl)methylene]-3-(3-pyridyl)-2-pyrazolin-5-one] showed a melting point of 230 to 232 °C.
Consider `CCOC(=O)C1=NNC(=O)C1=Cc1c[nH]c2ccccc12` [Example 283, 3-Ethoxycarbonyl-4-[(indol-3-yl)methylene]-2-pyrazolin-5-one], for which the melting point is 250 °C (dec.).
`COC(=O)CCC1=NNC(=O)C1=Cc1c[nH]c2ccccc12` [Example 284, 4-[(Indol-3-yl)methylene]-3-(2-methoxycarbonylethyl)-2-pyrazolin-5-one] gave a melting point of 267 to 269 °C.
The molecule `O=C1NN=C(C2CCC2)C1=Cc1cn(CCCCO)c2ccccc12` [Example 286, 3-Cyclobutyl-4-{[1-(4-hydroxybutyl)indol-3-yl]methylene}-2-pyrazolin-5-one] showed a melting point of 220 to 222 °C.
As to `Cn1cc(C=C2C(=O)NN=C2C2CC2)c2ccc(C(=O)O)cc21` [Example 287, 4-[(6-Carboxy-1-methylindol-3-yl)methylene]-3-cyclopropyl-2-pyrazolin-5-one], the melting point was 237 to 240 °C (dec.).
With `COc1ccc2c(c1)c(C=C1C(=O)NN=C1C1CC1)cn2C` [Example 288, 3-Cyclopropyl-4-[(5-methoxy-1-methylindol-3-yl)methylene]-2-pyrazolin-5-one] the figure was 236 to 238 °C; with `Cn1cc(C=C2C(=O)NN=C2c2cnccn2)c2ccccc21` [Example 289, 4-[(1-Methylindol-3-yl)methylene]-3-pyrazinyl-2-pyrazolin-5-one], 263 to 265 °C.
With `Cc1cccc2c(C=C3C(=O)NN=C3C3CC3)cn(C)c12` [Example 290, 3-Cyclopropyl-4-[(1,7-dimethylindol-3-yl)methylene]-2-pyrazolin-5-one] the figure was 258 to 260 °C; with `Cn1cc(C=C2C(=O)NN=C2C2CCOC2)c2ccccc21` (stereo not shown) [Example 291, 4-[(1-Methylindol-3-yl)methylene]-3-(tetrahydrofuran-3-yl)-2-pyrazolin-5-one], 208 to 210 °C; with `Cn1cc(C=C2C(=O)NN=C2NC2CC2)c2ccccc21` [Example 292, 3-Cyclopropylamino-4-[(1-methylindol-3-yl)methylene]-2-pyrazolin-5-one], 160 to 164 °C (dec.).
Molecule `CC(C)OC1=NNC(=O)C1=Cc1cn(C)c2cc(C(=O)O)ccc12` [Example 293, 4-[(6-Carboxy-1-methylindol-3-yl)methylene]-3-isopropoxy-2-pyrazolin-5-one] displayed a melting point of 330 to 332 °C.
In the case of `Cc1cccc2c(C=C3C(=O)NN=C3OC(C)C)cn(C)c12` [Example 294, 4-[(1,7-Dimethylindol-3-yl)methylene]-3-isopropoxy-2-pyrazolin-5-one], the melting point was in the range of 245 to 247 °C.
The same measure for `COc1ccc2c(c1)c(C=C1C(=O)NN=C1OC(C)C)cn2C` [Example 295, 3-Isopropoxy-4-[(5-methoxy-1-methylindol-3-yl)methylene]-2-pyrazolin-5-one]: 238 to 239 °C.
Molecule `Cn1cc(C=C2C(=O)NN=C2Nc2ccc(F)cc2)c2ccccc21` [Example 296, 3-(4-Fluorophenylamino)-4-[(1-methylindol-3-yl)methylene]-2-pyrazolin-5-one] gave a melting point of 218 to 219 °C.
For `Cn1cc(C=C2C(=O)NN=C2NC(=O)C(F)(F)F)c2ccccc21` [Example 297, 4-[(1-Methylindol-3-yl)methylene]-3-trifluoroacetamido-2-pyrazolin-5-one], the melting point was 252 to 253 °C.
Molecule `Cn1cc(C=C2C(=O)NN=C2CCc2ccc(N)cc2)c2ccccc21` [Example 298, 3-(4-Aminophenylethyl)-4-[(1-methylindol-3-yl)methylene]-2-pyrazolin-5-one] returned a melting point of 192 to 193 °C.
The same measure for `Cn1cc(C=C2C(=O)NN=C2N)c2ccccc21` [Example 299, 3-Amino-4-[(1-methylindol-3-yl)methylene]-2-pyrazolin-5-one]: 246 to 247 °C.

The record behind these values is US7060822B1, “2-pyrazolin-5-ones” (Abbott GmbH & Co. KG, priority 1999, dated 2006).
